Read-outs that look alike come from different tables or passages of the source.
What was measured:
[1] = tested on: IRE1/XBP1 (adaptive) UPR sub-pathway; test: UPR XBP1 assay (CHO-XBP1-luciferase reporter cell line); type: cell-based
Procedure: A high-throughput screen of the NIH Molecular Libraries Small Molecule Repository (MLSMR) of >350,000 compounds was carried out using complementary cell-based reporter assays using stably transfected CHO-K1 cells that specifically identify activators of the PERK/eIF2α/CHOP (apoptotic), or the IRE1/XBP1 (adaptive) UPR sub-pathways.
The liquid samples were first confirmed at a single-point concentration of 10 μM in the […]. Of the liquid samples, 674 compounds were confirmed to have at least 32% activity at a 10 μM assay concentration. The confirmed compounds were further tested in dose response in the UPR-CHOP primary assay to obtain EC50 values. In addition, confirmed compounds were also dosed out in the CHO-XBP1-luciferase reporter cell line to identify compounds that were selective for the CHOP apoptotic over the adaptive XBP1 pathway.
The high throughput screening effort and subsequent validation produced two chemotypes, which were further explored by SAR analysis for potency, selectivity, the absence of reactive functionality, synthetic accessibility, physiochemical properties, and hit rate in unrelated PUBCHEM assays. SAR testing of re-constituted powders encompassed dose response testing of compounds in two assays: UPR-CHOP and UPR-XBP1 assays.

[2] = tested on: PERK-eIF2α-CHOP (apoptotic) arm of the Unfolded Protein Response pathway; test: UPR-CHOP primary assay (CHO-CHOP luciferase reporter); type: cell-based
Procedure: The purpose of this assay was to detect activators of the PERK-eIF2α-CHOP (apoptotic) arm of the Unfolded Protein Response pathway.
Cells were passaged twice a week. […] Once the cells had reached confluency, old medium was aspirated and the flasks were washed with 20 mL DPBS per T225 flask. Cells were left in DPBS for about 30 seconds. Subsequently, 6.5 mL 0.05% trypsin solution was added into the flask and the flask was rocked gently so that the solution covered the surface. The cells were allowed to detach by incubating at room temperature for about 4 minutes. The flask was washed with […] fresh growth media and the cell suspension was collected in a 50 mL sterile conical tube. The collected cells were centrifuged at 900 rpm for 5 minutes and re-suspended in 1 mL fresh growth media. An additional 19 mL of growth media was added and the tube was mixed gently. The cell suspension was filtered with a cell strainer and the cells were counted.
As above, cells were grown to confluency, washed, and detached with 5 mL trypsin solution for 4 minutes at room temperature. The flask was washed with 25 mL fresh growth media and the cell suspension was collected in a 50 mL sterile conical tube. The cells were centrifuged at 500 rpm for 10 minutes and re-suspended carefully in 1 mL fresh assay medium. An additional 19 mL of assay media was added the cells were mixed gently. The cell suspension was filtered with a cell strainer and the number of cells was counted. Cell density was adjusted to 1.0×10^5 cells/mL in medium.
On day 1, cell suspensions were prepared and 500 cells in 5 μL of assay media were plated in the wells of columns 1-48 of a 1536-well assay plate. The plates were centrifuged at 500 rpm for 1 minute and subsequently incubated at 37° C., 100% relative humidity, 5% CO2 for 16-18 hours.
[…] […] The plates were centrifuged at 1000 rpm for 1 minute and subsequently incubated at 37° C., 100% relative humidity, 5% CO2 for 6 hours.
Following the 6-hour incubation the plate was incubated for 10 minutes at room temperature and 3 μL of STEADY-GLO was added to each well. The plates were centrifuged at 2000 rpm for 2 minutes and subsequently incubated at room temperature for 10 minutes. Luminescence was measured with a luminometer.
The MLPCN library of approximately 330,000 compounds was tested in the UPR-CHOP primary screen utilizing a luciferase-based reporter expressed in a CHO cell line to identify activators of the CHOP apoptotic pathway. […]

[3] = tested on: CHOP (apoptotic) and XBP1 (adaptive) arms of the UPR; conditions: prior screen, non-selective hits; cited from earlier work
chickens = conditions: grain from treated crops; cited from earlier work
MEF with wild-type CHOP = test: Proliferation / cytotoxicity (ATPLite) in MEF with wild-type CHOP; type: cell-based, mouse; conditions: Mus musculus; Table 5; MEF, ATPLite
Procedure: (§1) Several of the analogs derived from these changes were evaluated in secondary assays as they met the preliminary probe criteria for UPR-CHOP and UPR-XBP1 activity. Select compounds were assessed in a dose response manner for the ability to suppress proliferation in both the CHOP wild-type and CHOP knockout murine embryonic fibroblasts (−/− MEF KO CHOP)(Table 2).
(§2) It was determined whether ML291 and ML291 congeners would induce cell death (cytotoxicity as measured by ATPLite®, which measures production of ATP from living cells) in cells where these pathways are operant, but not activate them in the absence of the pathways.

−/− MEF KO CHOP = test: Proliferation / cytotoxicity (ATPLite) in MEF with CHOP KO; type: cell-based; conditions: Mus musculus; Table 5; MEF, ATPLite
Procedure: as §1, §2

[4] = Table 9, average of four runs, F12 HAMs, 10% hi-FBS, read-out: EC50 UPR XBP1 Assay
[5] = Table 9, average of four runs, F12 HAMs, 10% hi-FBS, read-out: EC50 UPR CHOP Assay
[6] = Cricetulus griseus, read-out: CHOP EC50

CC1CCN(S(=O)(=O)c2ccc(NC(=O)c3ccc([N+](=O)[O-])o3)cc2)CC1 [Analog 1]
EC50 [1, 4]: > 80 µM
EC50 [2, 5]: 760 nM

O=C(Nc1ccc(S(=O)(=O)N2CCOCC2)cc1)c1ccc([N+](=O)[O-])s1 [Entry 2 (Table 3)]
loss in CHOP potency versus 5-nitro-2-furan parent [2]: 6 fold

CN(C)C(=S)SSC(=S)N(C)C [NSC-1771]
induction of the UPR arms [3]: potently induce both the CHOP (apoptotic) and XBP1 (adaptive) arms of the UPR
toxicity in chickens (chickens): cause dyschondoplasia in the offspring of chickens

O=C(Nc1ccc(S(=O)(=O)N2CCC(F)CC2)cc1)c1ccc([N+](=O)[O-])o1 [Entry 10 (Table 1), N-(4-((4-fluoropiperidin-1-yl)sulfonyl)phenyl)-5-nitrofuran-2-carboxamide]
IC50 (MEF with wild-type CHOP): 17.5 ± 2.69 µM
IC50 (−/− MEF KO CHOP): > 20 µM

CC1(C)CCN(S(=O)(=O)c2ccc(NC(=O)c3ccc([N+](=O)[O-])o3)cc2)CC1 [Entry 13 (Table 1), N-(4-((4,4-dimethylpiperidin-1-yl)sulfonyl)phenyl)-5-nitrofuran-2-carboxamide]
XBP1 liability [1]: no discernable XBP1 liability
IC50 (MEF with wild-type CHOP): 3.02 ± 0.6 µM
IC50 (−/− MEF KO CHOP): 9.17 ± 3.34 µM
EC50 [2, 6]: 500 nM

CC1CCN(S(=O)(=O)c2ccc(NC(=O)c3ccc([N+](=O)[O-])o3)cc2)CC1 [Entry 12 (Table 1), N-(4-((4-methylpiperidin-1-yl)sulfonyl)phenyl)-5-nitrofuran-2-carboxamide]
IC50 (MEF with wild-type CHOP): 4.57 ± 1.24 µM
IC50 (−/− MEF KO CHOP): 16.3 ± 0.99 µM

CC(C)(C)C1CCN(S(=O)(=O)c2ccc(NC(=O)c3ccc([N+](=O)[O-])o3)cc2)CC1 [Entry 14 (Table 1), N-(4-((4-tert-butylpiperidin-1-yl)sulfonyl)phenyl)-5-nitrofuran-2-carboxamide]
IC50 (MEF with wild-type CHOP): 1.36 ± 0.54 µM
IC50 (−/− MEF KO CHOP): 2.05 ± 0.29 µM

CC(C)(C)C1CCN(S(=O)(=O)c2ccc(NC(=O)c3ccc([N+](=O)[O-])o3)cc2)CC1 [Analog 4]
EC50 [1, 4]: > 80 µM
EC50 [2, 5]: 650 nM

O=C(Nc1nc2c(F)cc(F)cc2s1)c1ccccn1 [SID 104222735]
EC50 ([1]; read-out: XBP1 EC50): 70 to 80 µM
CHOP potency / activity [2]: low micromolar

CCN(CC)C(=S)SSC(=S)N(CC)CC [disulfiram, bis(diethylthiocarbamoyl)disulfide]
induction of the UPR arms [3]: potently induce both the CHOP (apoptotic) and XBP1 (adaptive) arms of the UPR

O=C(Nc1ccc(S(=O)(=O)N2CCCCC2)cc1)c1ccc([N+](=O)[O-])o1 [Entry 8 (Table 1), N-(4-((piperidin-1-yl)sulfonyl)phenyl)-5-nitrofuran-2-carboxamide]
IC50 (MEF with wild-type CHOP): 7.84 ± 1.2 µM
IC50 (−/− MEF KO CHOP): > 20 µM

CC1(C)CCN(S(=O)(=O)c2ccc(NC(=O)c3ccc([N+](=O)[O-])o3)cc2)CC1 [Analog 5]
EC50 [1, 4]: > 80 µM
EC50 [2, 5]: 770 nM

O=C(Nc1ccc(S(=O)(=O)N2CCOCC2)cc1)c1ccc([N+](=O)[O-])o1 [Entry 1 (Table 1)]
EC50 ([1]; listed as SID104222717, read-out: XBP1 EC50): > 71 µM
EC50 ([1]; read-out: XBP1 EC50): 70 to 80 µM
CHOP potency / activity [2]: low micromolar
selectivity (XBP1 over CHOP) [2]: 35 fold
EC50 [2, 6]: 2020 nM

O=C(Nc1ccc(S(=O)(=O)N2CCC(F)CC2)cc1)c1ccc([N+](=O)[O-])o1 [Analog 3]
EC50 [1, 4]: > 80 µM
EC50 [2, 5]: 430 nM
